Results on five compounds are retold here after publication PMC9942557, “Bolaamphiphile Analogues of 12-bis-THA Cl2 Are Potent Antimicrobial Therapeutics with Distinct Mechanisms of Action against Bacterial, Mycobacterial, and Fungal Pathogens” (mSphere, 2022).

For orientation: MIC means the least concentration at which growth counts as inhibited.

The test system of series [1] is C. glabrata 8018. As to the kind of experiment: Broth microdilution MIC. To be noted: C. glabrata 8018. Format: cell-based. (Dilution methods test growth across graded concentrations, often in twofold steps.)
Series [2] concerns C. krusei 3876. As to the kind of experiment: Broth microdilution MIC. It is filed as cell-based.
Series [3] is described as follows: Dynamic light scattering. As to conditions: 0.36 mM in water. Format: physicochemical. The method, then: Stock solutions of bolalipids were prepared by dispersing the powder in ultrapure water, then stirring vigorously by vortexing, and sonicating in a 40°C bath sonicator for 20 min. The concentration of each stock solution corresponds to the highest solubility achieved in water for each bolalipid, using the method described above. DLS experiments were performed on a Malvern Zetasizer Nano (Malvern Instruments, Worcestershire, UK) in back-scattering mode at 20°C. There were three independent measurements of each sample and 12 runs for each measurement, with 10 s taken for each run. The attenuator index and measurement position were automatically adjusted. Fifty microliters of each sample was transferred into polystyrene semi-microcuvettes for determination of UV and visible wavelengths (Sarstedt).

The subject of series [4] is pBR322 plasmid, wheat germ topoisomerase I. The series can be described thus: DNA unwinding assay. Format: biochemical. To be noted: for DNA intercalation: relaxed pBR322 plasmid plus topoisomerase I (Fig. 2A); for relaxation of supercoiled plasmid through the action of topoisomerase I: supercoiled pBR322 plasmid, bolalipid present (Fig. 2B). The method, then: A DNA unwinding assay kit (Inspiralis Limited, Norwich, UK) consists of wheat germ topoisomerase I assay buffer (50 mM Tris HCl [pH 7.9], 1 mM EDTA, 1 mM dithiothreitol [DTT], 20% [vol/vol] glycerol, 50 mM NaCl) dilution buffer (50 mM Tris HCl [pH 7.9], 1 mM EDTA, 1 mM DTT, 50% [vol/vol] glycerol, 500 mM NaCl), wheat germ topoisomerase I (5 U/μL), supercoiled plasmid pBR322 (1 μg/μL), and relaxed plasmid pBR322 (1 μg/μL). For the experiments, 2× DNA loading buffer containing 40% (wt/vol) sucrose, 100 mM Tris-HCl (pH 8), 1 mM EDTA, and 0.5 mg/mL bromophenol blue was prepared. The enzyme was diluted 1/5 with dilution buffer before being used in the assay. For the assay, 3 mM stock solutions in methanol of the compounds to be tested were prepared. An appropriate number of 1.5-mL Eppendorf tubes were filled with 25 μL of a mix consisting of assay buffer (15 μL of buffer per sample), supercoiled or relaxed pBR322 (0.5 μg/assay), and ultrapure water. In the first two tubes, 1 μL of methanol was added to test the effect of the solvent on both the plasmid and the enzyme. Subsequently, 1 μL of the test compounds was added to the remaining tubes, and the tubes briefly vortexed and incubated at room temperature for 5 min. After that, 2 μL of dilution buffer was added in the first tube, whereas 2 μL of enzyme diluted solution was added to the remaining tubes. The tubes were gently vortexed and incubated for 30 min at 37°C in a water bath. After this time, the reaction was stopped by adding 20 μL of water and 50 μL of water-saturated butanol to each tube. The tubes were vortexed and centrifuged for 1 min at 14,800 rpm. The lower aqueous layer of each tube was removed and transferred to a new tube containing 30 μL of chloroform-isoamyl alcohol (24/1) and 50 μL of loading buffer. The tubes were briefly vortexed and centrifuged for 1 min. Twenty microliters of the upper layer of each tube was loaded onto a 1% (wt/vol) agarose gel, and the gel was run at 80 V for approximately 4 h in Tris-acetate-EDTA buffer (40 mM Tris acetate and 1 mM EDTA). Subsequently, the gel was stained with ethidium bromide (1 μg/mL) for 15 min, briefly destained (5 to 10 min) in water, and visualized with a Multi-Doc Imaging M-26X UVP transilluminator.

A short description of series [5]: Patch-clamp conductance in model membranes. To be noted: bilayers composed of DPhPG. The method, then:
Giant unilamellar vesicles (GUVs) composed of DiPhytanoly PhosphatidylGlycerol (DPhPG) were prepared in the presence of 1 M sorbitol by the electroformation method in an indium-tin oxide (ITO)-coated glass chamber connected to the Nanion Vesicle Prep Pro setup (Nanion Technologies GmbH, Munich, Germany) using a 3-V peak-to-peak AC voltage at a frequency of 5 Hz for 140 min at 37°C ([30][–][32]). Bilayers were formed by adding the GUV solution to a buffer containing 250 mM KCl, 50 mM MgCl2, and 10 mM HEPES (pH 7.00) onto an aperture in a borosilicate chip (Port-a-Patch; Nanion Technologies) and applying 7,000 to 9,000 Pa negative pressure, resulting in a solvent-free membrane with a resistance in the GΩ range. […] After formation, a small amount of bolalipid stock solution (in water) was added to 50 μL of buffer solution in order to obtain its active concentration. All the experiments were carried out with a positive holding potential of 50 mV. […] For all the experiments, a minimum of 6 concordant repeats were done. Current traces were recorded at a sampling rate of 50 kHz using an EPC-10 amplifier from HEKA Elektronik (Lambrecht, Germany). The system was computer controlled by PatchControl software (Nanion) and GePulse (Michael Pusch, Genoa, Italy [http://users.ge.ibf.cnr.it/pusch/software-mik.htm]). […]
(In patch-clamp work, channel activity is measured electrically.)

Series [6] has as its system G. vaginalis NCTC 10287. The series can be described thus: Anaerobic broth microdilution MIC (BHI, 5% horse serum). Format: cell-based, Gardnerella vaginalis. To be noted: Gardnerella vaginalis, NCTC10287, read-out: MIC.
Series [7] concerns Prevotella bivia NCTC 11156. Described as above. It is filed as cell-based. As to conditions: NCTC11156, read-out: MIC.
Series [8] concerns M. tuberculosis Bleupan. Format: in vivo, Galleria mellonella.
Series [9] has as its system M. tuberculosis Bleupan. The series can be described thus: Selectivity index (toxicity/potency). It is filed as cell-based, Mycobacterium tuberculosis. To be noted: ratio of average toxicity (HEK293 and HeLa) to potency. An excerpt: TABLE 3 Selectivity indices of bolaamphiphiles | column: Selectivity of^a: / 12-bis-THA Cl2; Selectivity of^a: / Dequalinium; Selectivity of^a: / Penta-bola; Selectivity of^a: / Octa-bola; Selectivity of^a: / Octa-C8; Selectivity of^a: / Octa-C6

Setting [10] is: Nakaseomyces glabratus, read-out: MIC.
[11] abbreviates: Pichia kudriavzevii, read-out: MIC.

Where two headings read alike, the source gives them in different places.

`Nc1c2c([n+](CCCCCCCCCCCC[n+]3c4c(c(N)c5ccccc53)CCCC4)c3ccccc13)CCCC2` [12-bis-THA Cl2, 12,12′-(Dodecane-1,12-diyl)-bis-(9-amino-1,2,3,4-tetrahydroacridinium) chloride]: the minimal inhibitory concentration (MIC) worked out at 0.25 µg/mL in series [1] and 0.5 µg/mL in [2]. Moreover, in series [3], the “nanoparticle formation (DLS)” value is “to some extent”. Besides, the DNA intercalation result in series [4] is listed as “intercalators”. The “relaxation of supercoiled plasmid through the action of topoisomerase I” value (shortened to “relaxation”) in [4] is given as “not observed”. Besides, the “concentration required to induce any conductance” value in series [5] was 90 µM.

With `Cc1cc(N)c2ccccc2[n+]1CCCCCCCCCC[n+]1c(C)cc(N)c2ccccc21` [Dequalinium, dequalinium chloride, reference compound], the MIC in series [1] (setting [10]) was 0.5 µg/mL; in [2] (setting [11]), 1 µg/mL; in series [6], 2 µg/mL; in series [7], 2 µg/mL. In addition, in series [3], the “nanoparticle formation (DLS)” value was “readily form nanoparticles”. For the same compound, in series [4], the DNA intercalation result is on record as “intercalators”. Also, the “relaxation” value in series [4] is reported as “not observed”. In addition, in series [5], the “concentration required to induce any conductance” value stood at 90 µM. The figures for the survival result in series [8] (0.1 mg/kg) and in series [8] (higher or lower doses than 0.1 mg/kg) were “lower survival” and “indifferent”, respectively. Moreover, in series [9], the Selectivity index was found to be 6.35.

On to `Nc1c2c([n+](CCCCCCCCCCCC[n+]3c4c(c(N)c5ccccc53)CCCCCC4)c3ccccc13)CCCCCC2` [Octa-bola], for which the MIC in series [1] (setting [10]) worked out at 0.5 µg/mL. Further, in [2] (setting [11]), the MIC is 0.5 µg/mL. In addition, in series [3], the “nanoparticle formation (DLS)” value is “readily form nanoparticles”. In [4], the DNA intercalation entry was “intercalation is reduced if not eliminated” and the “relaxation” value is recorded as “not observed”. Also, the infected larvae rescued entry in series [8] (1 mg/kg) is listed as “about half”. Further, the Selectivity index in [9] is 17.3.

In [1], `Nc1c2c([n+](CCCCCCCCCCCC[n+]3c4c(c(N)c5ccccc53)CCC4)c3ccccc13)CCC2` [Penta-bola] came in with a minimum inhibitory concentration (MIC) of 0.25 µg/mL. This compound also displayed an MIC in [2] of 0.5 µg/mL. Moreover, the “nanoparticle formation (DLS)” value in series [3] was “to some extent”. Also, in [4], the DNA intercalation entry is listed as “intercalators” and the “relaxation” value was “not observed”.

`Cc1c(N)c2ccccc2[n+](CCCCCCCCCCCC[n+]2c(C)c(C)c(N)c3ccccc32)c1C` [Quino-bola]: the MIC in series [1] (setting [10]) came to 0.25 µg/mL. In series [2] (setting [11]), the MIC stood at 1 µg/mL. Further, in [4], the DNA intercalation result was “intercalators” and the “relaxation” value was “not observed”.
